The text below walks through data of PubChem BioAssay (NCI).

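All cell lines were grown in 96-well plates and treated with compound for 48 hours. TGI is the concentration that stops growth completely.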

Some test systems named below: PC-3 prostate; OVCAR-5 ovarian; COLO 205 colon; NCI-H226 lung; A498 renal; HCT-15 colon; OVCAR-8 ovarian; A549 NSCLC; HCT-116 colon; HCC-2998 colon; EKVX NSCLC; SN12C renal; UACC-257 melanoma; U251 CNS; HL-60(TB) leukemia; SR leukemia.
Experiment in all cases: NCI-60 cell line screen, 48 h

Regarding `CC(C)NCC(O)c1ccc(OCc2ccccc2)c(OCc2ccccc2)c1-c1ccccc1` (configuration not stated), the TGI in the assay on PC-3 prostate came out at 3.11 µM; in the assay on OVCAR-5 ovarian, 3.16 µM; in the assay on COLO 205 colon, 3.2 µM; with NCI-H226 lung, 4.28 µM; in the assay on A498 renal, 11.6 µM; in the assay with HCT-15 colon it was 3.22 µM. Besides, the TGI was 3.17 µM in the assay with OVCAR-8 ovarian; 3.21 µM in the assay with A549 NSCLC; 3.17 µM in the assay with HCT-116 colon; 3.06 µM in the assay on HCC-2998 colon; 32.3 µM in the assay with EKVX NSCLC; 3.13 µM in the assay with SN12C renal. The molecule also registered a TGI in the assay with UACC-257 melanoma of 3.54 µM.

For `Clc1c(Cl)c2c(Cl)c(Cl)c1C[P+](c1ccccc1)(c1ccccc1)CC[P+](c1ccccc1)(c1ccccc1)Cc1c(Cl)c(Cl)c(c(Cl)c1Cl)C[P+](c1ccccc1)(c1ccccc1)CC[P+](c1ccccc1)(c1ccccc1)C2`, the TGI with OVCAR-5 ovarian was 13.2 µM; in the assay with COLO 205 colon, 2.89 µM; in the assay on NCI-H226 lung it was 20.2 µM; with A498 renal it was 24.4 µM; with HCT-15 colon, 24.6 µM; in the assay on OVCAR-8 ovarian it was 19 µM. Further, the TGI in the assay with A549 NSCLC was 18.8 µM; with HCT-116 colon it was 9.71 µM; with HCC-2998 colon, 14.5 µM; in the assay on EKVX NSCLC it was 21.7 µM; in the assay on SN12C renal it was 15.3 µM; in the assay on U251 CNS, 12.4 µM. This molecule also registered a TGI in the assay on UACC-257 melanoma of 6.38 µM.

As to `c1ccc(/N=N/Nc2ccc(-c3nc4ccccc4[nH]3)cc2)nc1`, the TGI is 47.2 µM in the assay on PC-3 prostate; 84.1 µM in the assay on OVCAR-5 ovarian; above 100 µM in the assay on COLO 205 colon; 65.4 µM with NCI-H226 lung; above 100 µM in the assay with HL-60(TB) leukemia; above 100 µM in the assay with A498 renal. Also, the TGI in the assay on HCT-15 colon worked out at 69.9 µM; with OVCAR-8 ovarian it was 47.2 µM; in the assay with A549 NSCLC, 36.4 µM; in the assay with HCT-116 colon, 19.7 µM; in the assay on EKVX NSCLC, 52.8 µM; in the assay on SN12C renal, 35.8 µM. The TGI came out at 30.1 µM in the assay with U251 CNS and 62.6 µM in the assay on UACC-257 melanoma.

Regarding `CC(C)OP(=O)(OC(C)C)C(=Nc1ccccc1)NNc1ccc([N+](=O)[O-])cc1`, the TGI in the assay on OVCAR-5 ovarian was above 100 µM; with COLO 205 colon, 51.5 µM; in the assay with NCI-H226 lung, 84.9 µM; in the assay with SR leukemia it was 43.4 µM; in the assay with HL-60(TB) leukemia, 46.2 µM; with HCT-15 colon it was above 100 µM. In addition, the TGI was above 100 µM in the assay with OVCAR-8 ovarian; 88.5 µM with A549 NSCLC; 31.2 µM in the assay on HCT-116 colon; above 100 µM in the assay on HCC-2998 colon; above 100 µM in the assay with EKVX NSCLC; above 100 µM in the assay with SN12C renal. Besides, the TGI with U251 CNS was 52.5 µM; with UACC-257 melanoma, above 100 µM.

On to `S=C(S)N1CCN(c2ccc(Cl)c(Cl)c2)CC1`, for which the TGI in the assay on PC-3 prostate was 46.9 µM; in the assay on OVCAR-5 ovarian, above 100 µM; with COLO 205 colon it was 33.6 µM; in the assay with HL-60(TB) leukemia, 44.3 µM; with A498 renal, 44.2 µM; in the assay with HCT-15 colon, above 100 µM. For the same molecule, the TGI was above 100 µM with OVCAR-8 ovarian; above 100 µM with A549 NSCLC; 29.5 µM in the assay on HCT-116 colon; 36.6 µM in the assay with HCC-2998 colon; above 100 µM with EKVX NSCLC; above 100 µM in the assay with SN12C renal. In the assay with U251 CNS, this molecule had a TGI of 90.7 µM.

With `COc1nc2sc3c(c2c(=O)n1CCCSSCCCn1c(OC)nc2sc4c(c2c1=O)CCCC4)CCCC3`, the TGI with PC-3 prostate, with OVCAR-5 ovarian, in the assay with COLO 205 colon, in the assay with NCI-H226 lung, in the assay with HCT-15 colon and in the assay on OVCAR-8 ovarian was above 100 µM in each case. In addition, the TGI in the assay on A549 NSCLC, with HCT-116 colon, with HCC-2998 colon, in the assay on EKVX NSCLC, with SN12C renal and in the assay on U251 CNS was above 100 µM in each case. The molecule also came in with a TGI in the assay with UACC-257 melanoma above 100 µM.

`O=C(O)CC/C(=N\Nc1nsc2ccccc12)c1ccc(Cl)cc1`: the TGI with PC-3 prostate was above 100 µM; in the assay with OVCAR-5 ovarian it was above 100 µM; in the assay with COLO 205 colon, above 100 µM; in the assay with NCI-H226 lung, above 100 µM; with HL-60(TB) leukemia it was 59.9 µM; with A498 renal, 99.4 µM. The TGI in the assay with HCT-15 colon was 53.5 µM; in the assay with OVCAR-8 ovarian it was above 100 µM; in the assay with A549 NSCLC, above 82.2 µM; in the assay with HCT-116 colon it was 68.9 µM; in the assay with HCC-2998 colon it was 36.8 µM; with EKVX NSCLC it was above 100 µM. For the same molecule, the TGI with SN12C renal was 57.7 µM; with U251 CNS, 82.4 µM; in the assay with UACC-257 melanoma it was above 67.4 µM.

For the molecule `CCOC(=O)[C@@]12CCC(C1=O)[C@](C)(O)C[C@@H]2c1ccccc1`, the TGI in the assay on PC-3 prostate, with OVCAR-5 ovarian, in the assay on COLO 205 colon, in the assay on NCI-H226 lung, in the assay on HL-60(TB) leukemia and in the assay on HCT-15 colon was above 100 µM throughout. Besides, the TGI with OVCAR-8 ovarian was above 100 µM; in the assay with A549 NSCLC it was above 100 µM; with HCT-116 colon it was above 100 µM; with EKVX NSCLC it was above 100 µM; in the assay with SN12C renal, 72.3 µM; with U251 CNS it was above 100 µM. In the assay on UACC-257 melanoma, this molecule had a TGI above 100 µM.

In the case of `CN(C)c1nc(NN)c2c(-c3ccccc3)c(-c3ccccc3)oc2n1`, the TGI with OVCAR-5 ovarian, in the assay on COLO 205 colon, in the assay on NCI-H226 lung, in the assay with SR leukemia, with A498 renal and in the assay with HCT-15 colon was above 100 µM each time. Also, the TGI in the assay with OVCAR-8 ovarian, in the assay on A549 NSCLC, in the assay on HCT-116 colon, in the assay on HCC-2998 colon, in the assay with EKVX NSCLC and with SN12C renal was above 100 µM throughout. Besides, the TGI with U251 CNS and in the assay on UACC-257 melanoma was above 100 µM throughout.

As for `O=C(NCCO)Nc1c(C(F)(F)F)cc(-c2ccccc2)[nH]c1=O`, the TGI in the assay on PC-3 prostate, in the assay on OVCAR-5 ovarian, with COLO 205 colon, in the assay with NCI-H226 lung, in the assay with HL-60(TB) leukemia and with A498 renal was above 100 µM throughout. Further, the TGI in the assay on HCT-15 colon, with OVCAR-8 ovarian, in the assay on A549 NSCLC, with HCT-116 colon, in the assay on HCC-2998 colon and in the assay with EKVX NSCLC was above 100 µM in each case. In addition, the TGI in the assay on SN12C renal, with U251 CNS and with UACC-257 melanoma was above 100 µM throughout.
